The values that follow come from patent publication US12240862B2, “Inhibitors of peptidylarginine deiminases” (Gilead Sciences, Inc., priority 2020, dated 2025).

The test deals with T1, human PAD4 (Homo sapiens, UniProt Q9UM07).
T1 construct: human PAD4 (NM_012387), A2P663, was PCR amplified; His-SUMO (N, cleaved yes); made in house; host or cells: E. coli BL21(DE3)
The experiment in a line: In vitro PAD4 BAEE biochemical assay. Conditions: human PAD4, BAEE substrate; 5 nM PAD4, 2 mM calcium chloride, 3 mM BAEE; geometric mean of multiple experiments. The essentials:
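Ammonia release from BAEE deimination monitored by o-phthalaldehyde amine coupling (1 h, 25 °C) after EDTA stop. Final conditions: 5 nM tag-free recombinant human PAD4 (E. coli), 2 mM CaCl2, 3 mM BAEE, pH 7.6 MOPS with DTT; 30 min compound preincubation, then 2 h reaction at 25 °C.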

T1 sequence (Q9UM07 2-663): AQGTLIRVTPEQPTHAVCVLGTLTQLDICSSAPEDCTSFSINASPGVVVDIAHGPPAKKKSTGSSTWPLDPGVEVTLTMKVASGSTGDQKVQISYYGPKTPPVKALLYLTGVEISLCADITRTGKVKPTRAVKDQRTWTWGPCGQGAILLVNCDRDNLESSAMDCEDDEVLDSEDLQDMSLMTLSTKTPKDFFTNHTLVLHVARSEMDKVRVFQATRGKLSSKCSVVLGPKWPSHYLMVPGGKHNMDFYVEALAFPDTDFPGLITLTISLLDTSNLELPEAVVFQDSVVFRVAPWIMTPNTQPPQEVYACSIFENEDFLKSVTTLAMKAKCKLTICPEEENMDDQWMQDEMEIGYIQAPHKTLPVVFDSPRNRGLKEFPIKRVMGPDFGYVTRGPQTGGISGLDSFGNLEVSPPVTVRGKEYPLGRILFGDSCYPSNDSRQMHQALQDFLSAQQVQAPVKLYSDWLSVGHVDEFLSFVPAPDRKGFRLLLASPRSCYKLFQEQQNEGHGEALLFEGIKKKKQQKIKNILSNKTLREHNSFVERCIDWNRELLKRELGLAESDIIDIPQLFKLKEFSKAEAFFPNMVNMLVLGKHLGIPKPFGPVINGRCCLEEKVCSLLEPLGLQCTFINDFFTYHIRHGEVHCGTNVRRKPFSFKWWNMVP

`COc1cc(C(=O)N2[C@H]3CC[C@@H]2[C@H](N)C3)cc2nc(-c3cc4ccc([C@@H](C)NC(=O)c5ccc(Cl)nc5)nc4n3CC3CC3)c(C)n12` [Example 48, ~{N}-[(1~{R})-1-[2-[7-[(1~{R},2~{R},4~{S})-2-amino-7-azabicyclo[2.2.1]heptane-7-carbonyl]-5-methoxy-3-methylimidazo [1,2-a]pyridin-2-yl]-1-(cyclopropylmethyl)pyrrolo[2,3-b]pyridin-6-yl]ethyl]-6-chloropyridine-3-carboxamide]: the IC50 came out at 0.0344 µM.
For `COc1cc(C(=O)N2[C@H]3CC[C@@H]2[C@H](N)C3)cc2nc(-c3cc4ccc([C@@H](C)NC(=O)c5ccc(C)nc5)nc4n3CC3CC3)c(C)n12` [Example 49, ~{N}-[(1~{R})-1-[2-[7-[(1~{R},2~{R},4~{S})-2-amino-7-azabicyclo[2.2.1]heptane-7-carbonyl]-5-methoxy-3-methylimidazo [1,2-a]pyridin-2-yl]-1-(cyclopropylmethyl)pyrrolo[2,3-b]pyridin-6-yl]ethyl]-6-methylpyridine-3-carboxamide], the 50% inhibitory concentration (IC50) stood at 0.0222 µM.
Next, `COc1cc(C(=O)N2[C@H]3CC[C@@H]2[C@H](N)C3)cc2nc(-c3cc4ccc([C@@H](C)NC(=O)c5ccnc(C(F)F)c5)nc4n3CC3CC3)c(C)n12` [Example 50, ~{N}-[(1~{R})-1-[2-[7-[(1~{R},2~{R},4~{S})-2-amino-7-azabicyclo[2.2.1]heptane-7-carbonyl]-5-methoxy-3-methylimidazo [1,2-a]pyridin-2-yl]-1-(cyclopropylmethyl)pyrrolo[2,3-b]pyridin-6-yl]ethyl]-2-(difluoromethyl)pyridine-4-carboxamide]: 0.0306 µM; `COc1cc(C(=O)N2[C@H]3CC[C@@H]2[C@H](N)C3)cc2nc(-c3cc4ccc([C@@H](C)NC(=O)c5ccnc(Cl)c5)nc4n3CC3CC3)c(C)n12` [Example 51]: 0.0309 µM.
Next, `COc1cc(C(=O)N2[C@H]3CC[C@@H]2[C@H](N)C3)cc2nc(-c3cc4ccc([C@@H](C)NC(=O)c5ccncc5F)nc4n3CC3CC3)c(C)n12` [Example 52]: 0.0314 µM; `COc1cc(C(=O)N2[C@H]3CC[C@@H]2[C@H](N)C3)cc2nc(-c3cc4ccc([C@@H](C)NC(=O)C5C(F)(F)C56CC6)nc4n3CC3CC3)c(C)n12` (stereo partly shown) [Example 53, ~{N}-[(1~{R})-1-[2-[7-[(1~{R},2~{R}, 4~{S})-2-amino-7-azabicyclo[2.2.1]heptane-7-carbonyl]-5-methoxy-3-methylimidazo[1,2-a]pyridin-2-yl]-1-(cyclopropylmethyl)pyrrolo[2,3-b]pyridin-6-yl]ethyl]-2,2-difluorospiro[2.2] pentane-1-carboxamide]: 0.0372 µM.
Take `COc1cc(C(=O)N2[C@H]3CC[C@@H]2[C@H](N)C3)cc2nc(-c3cc4ccc([C@@H](C)NC(=O)[C@H]5C[C@@](C)(O)C5)nc4n3CC3CC3)c(C)n12` [Example 54, ~{N}-[(1~{R})-1-[2-[7-[(1~{R},2~{R}, 4~{S})-2-amino-7-azabicyclo[2.2.1]heptane-7-carbonyl]-5-methoxy-3-methylimidazo[1,2-a]pyridin-2-yl]-1-(cyclopropylmethyl)pyrrolo[2,3-b]pyridin-6-yl]ethyl]-3-hydroxy-3-methylcyclobutane-1-carboxamide]: the concentration for half-maximal inhibition (IC50) came to 0.0287 µM.
Next, `COc1cc(C(=O)N2[C@H]3CC[C@@H]2[C@H](N)C3)cc2nc(-c3cc4ccc([C@@H](C)NC(=O)C5CC6(CC6)C5)nc4n3CC3CC3)c(C)n12` [Example 55, ~{N}-[(1~{R})-1-[2-[7-[(1~{R},2~{R},4~{S})-2-amino-7-azabicyclo [2.2.1]heptane-7-carbonyl]-5-methoxy-3-methylimidazo [1,2-a]pyridin-2-yl]-1-(cyclopropylmethyl)pyrrolo[2,3-b]pyridin-6-yl]ethyl] spiro[2.3]hexane-5-carboxamide]: 0.0526 µM.
Next, `COc1cc(C(=O)N2[C@H]3CC[C@@H]2[C@H](N)C3)cc2nc(-c3cc4ccc([C@@H](C)NC(=O)c5ccc(F)cc5F)nc4n3CC3CC3)c(C)n12` [Example 56, ~{N}-[(1~{R})-1-[2-[7-[(1~{R},2~{R}, 4~{S})-2-amino-7-azabicyclo[2.2.1]heptane-7-carbonyl]-5-methoxy-3-methylimidazo[1,2-a]pyridin-2-yl]-1-(cyclopropylmethyl)pyrrolo[2,3-b]pyridin-6-yl]ethyl]-2,4-difluorobenzamide]: 0.254 µM; `COc1cc(C(=O)N2C[C@H]3CCCN[C@H]3C2)cc2nc(-c3cc4ccc([C@@H](C)NC(=O)c5ccccc5)nc4n3CC3CC3)c(C)n12` [Example 58, ~{N}-[(1~{R})-1-[2-[7-[(4~{a}~{R}, 7~{a}~{R})-1,2,3,4,4~{a},5,7,7~{a}-octahydropyrrolo[3,4-b]pyridine-6-carbonyl]-5-methoxy-3-methylimidazo[1,2-a]pyridin-2-yl]-1-(cyclopropylmethyl)pyrrolo[2,3-b]pyridin-6-yl]ethyl]benzamide]: 0.771 µM; `COc1cc(C(=O)N2CC[C@H]3CCN[C@H]3C2)cc2nc(-c3cc4ccc([C@@H](C)NC(=O)c5ccccc5)nc4n3CC3CC3)c(C)n12` [Example 59, ~{N}-[(1~{R})-1-[2-[7-[(3~{a}~{R}, 7~{a}~{R})-1,2,3,3~{a},4,5,7,7~{a}-octahydropyrrolo[2,3-c]pyridine-6-carbonyl]-5-methoxy-3-methylimidazo[1,2-a]pyridin-2-yl]-1-(cyclopropylmethyl)pyrrolo[2,3-b]pyridin-6-yl]ethyl]benzamide]: 0.194 µM.
`COc1cc(C(=O)N2[C@H]3CC[C@@H]2[C@H](N)[C@H](O)C3)cc2nc(-c3cc4ccc([C@@H](C)NC(=O)C(C)(C)C)nc4n3CC3CC3)c(C)n12` [Example 60, ~{N}-[(1~{R})-1-[2-[7-[(1~{R},2~{S},3~{R}, 5~{S})-2-amino-3-hydroxy-8-azabicyclo[3.2.1]octane-8-carbonyl]-5-methoxy-3-methylimidazo [1,2-a]pyridin-2-yl]-1-(cyclopropylmethyl)pyrrolo[2,3-b]pyridin-6-yl]ethyl]-2,2-dimethylpropanamide]: the IC50 is 0.226 µM.
To `COc1cc(C(=O)N2[C@H]3CC[C@@H]2[C@H](N)C3)cc2nc(-c3cc4ccc([C@@H](C)NC(=O)C5CCC5(F)F)nc4n3CC3CC3)c(C)n12` (stereo partly shown) [Example 61, ~{N}-[(1~{R})-1-[2-[7-[(1~{R},2~{R},4~{S})-2-amino-7-azabicyclo [2.2.1]heptane-7-carbonyl]-5-methoxy-3-methylimidazo [1,2-a]pyridin-2-yl]-1-(cyclopropylmethyl)pyrrolo[2,3-b]pyridin-6-yl]ethyl]-2,2-difluorocyclobutane-1-carboxamide] belongs 0.0378 µM.
On to `COc1cc(C(=O)N2[C@H]3CC[C@@H]2[C@H](N)C3)cc2nc(-c3cc4ccc([C@@H](C)NC(=O)c5cc6n(c5)CCOC6)nc4n3CC3CC3)c(C)n12` [Example 62, ~{N}-[(1~{R})-1-[2-[7-[(1~{R},2~{R}, 4~{S})-2-amino-7-azabicyclo[2.2.1]heptane-7-carbonyl]-5-methoxy-3-methylimidazo [1,2-a]pyridin-2-yl]-1-(cyclopropylmethyl)pyrrolo[2,3-b]pyridin-6-yl]ethyl]-3,4-dihydro-1~{H}-pyrrolo [2,1-c][1,4]oxazine-7-carboxamide], for which the IC50 stood at 0.0483 µM.
To `COc1cc(C(=O)N2[C@H]3CC[C@@H]2[C@H](N)C3)cc2nc(-c3cc4ccc([C@@H](C)NC(=O)C56CCC(F)(CC5)CC6)nc4n3CC3CC3)c(C)n12` [Example 63, ~{N}-[(1~{R})-1-[2-[7-[(1~{R},2~{R}, 4~{S})-2-amino-7-azabicyclo[2.2.1]heptane-7-carbonyl]-5-methoxy-3-methylimidazo [1,2-a]pyridin-2-yl]-1-(cyclopropylmethyl)pyrrolo[2,3-b]pyridin-6-yl]ethyl]-4-fluorobicyclo[2.2.2] octane-1-carboxamide] belongs 0.0849 µM; to `C=CCC(=O)N[C@H](C)c1ccc2cc(-c3nc4cc(C(=O)N5[C@H]6CC[C@@H]5[C@H](N)C6)cc(OC)n4c3C)n(CC3CC3)c2n1` [Example 64, ~{N}-[(1~{R})-1-[2-[7-[(1~{R},2~{R},4~{S})-2-amino-7-azabicyclo[2.2.1]heptane-7-carbonyl]-5-methoxy-3-methylimidazo [1,2-a]pyridin-2-yl]-1-(cyclopropylmethyl)pyrrolo[2,3-b]pyridin-6-yl]ethyl]but-3-enamide], 0.0385 µM; to `COc1cc(C(=O)N2[C@H]3CC[C@@H]2[C@H](N)C3)cc2nc(-c3cc4ccc([C@@H](C)NC(=O)C56CC(CO)(C5)C6)nc4n3CC3CC3)c(C)n12` [Example 65], 0.0336 µM.
To `COc1cc(C(=O)N2[C@H]3CC[C@@H]2[C@H](N)C3)cc2nc(-c3cc4ccc([C@@H](C)NC(=O)C5CCC(F)(F)CC5)nc4n3CC3CC3)c(C)n12` [Example 66, ~{N}-[(1~{R})-1-[2-[7-[(1~{R},2~{R},4~{S})-2-amino-7-azabicyclo [2.2.1]heptane-7-carbonyl]-5-methoxy-3-methylimidazo [1,2-a]pyridin-2-yl]-1-(cyclopropylmethyl)pyrrolo[2,3-b]pyridin-6-yl]ethyl]-4,4-difluorocyclohexane-1-carboxamide] belongs 0.0685 µM; to `COc1cc(C(=O)N2[C@H]3CC[C@@H]2[C@H](N)C3)cc2nc(-c3cc4ccc([C@@H](C)NC(=O)C5(C(F)(F)F)CCOCC5)nc4n3CC3CC3)c(C)n12` [Example 67, ~{N}-[(1~{R})-1-[2-[7-[(1~{R},2~{R},4~{S})-2-amino-7-azabicyclo [2.2.1]heptane-7-carbonyl]-5-methoxy-3-methylimidazo [1,2-a]pyridin-2-yl]-1-(cyclopropylmethyl)pyrrolo[2,3-b]pyridin-6-yl]ethyl]-4-(trifluoromethyl)oxane-4-carboxamide], 0.124 µM.

The IC50 is the point on the concentration scale where inhibition reaches its midpoint.
